In patent publication US20090062294A1, “HETEROARYL-SUBSTITUTED UREA MODULATORS OF FATTY ACID AMIDE HYDROLASE” (priority 2007, published 2009):
Where a name gives a salt, the structure may show the parent alone. Blank lines part the entries; values can stand above or below the molecule they belong to.

Key:
spasticity = conditions: model of multiple sclerosis; cited from earlier work
anxiety = conditions: rats; cited from earlier work
thermal nociception [1] = conditions: rats; cited from earlier work
pain = conditions: rat; cited from earlier work
rat FAAH = target: T1, rat FAAH (Rattus norvegicus, UniProt P97612); experiment: Assay Method 2: FAAH assay, 3H-anandamide hydrolysis in homogenate of SK-N-MC cells transfected with rat FAAH; type: biochemical; conditions: average of results, > = solubility limit or highest concentration tested
T1 sequence (P97612 1-579): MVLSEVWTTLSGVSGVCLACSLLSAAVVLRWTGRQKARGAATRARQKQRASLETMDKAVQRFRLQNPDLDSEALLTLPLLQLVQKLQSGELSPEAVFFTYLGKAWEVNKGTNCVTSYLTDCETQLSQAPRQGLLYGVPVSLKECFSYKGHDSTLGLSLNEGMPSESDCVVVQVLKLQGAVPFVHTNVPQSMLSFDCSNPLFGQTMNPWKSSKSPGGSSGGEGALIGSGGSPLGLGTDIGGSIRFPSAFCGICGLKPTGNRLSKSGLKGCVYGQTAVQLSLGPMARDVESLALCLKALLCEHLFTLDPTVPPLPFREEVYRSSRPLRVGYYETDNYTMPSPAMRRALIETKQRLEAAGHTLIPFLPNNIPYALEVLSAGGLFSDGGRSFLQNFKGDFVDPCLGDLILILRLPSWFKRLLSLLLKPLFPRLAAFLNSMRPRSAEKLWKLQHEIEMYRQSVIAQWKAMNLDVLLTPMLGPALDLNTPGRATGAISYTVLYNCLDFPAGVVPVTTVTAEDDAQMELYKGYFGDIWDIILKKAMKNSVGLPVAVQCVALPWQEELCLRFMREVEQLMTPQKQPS
Outline: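 Read-out is scintillation counting of [3H]-ethanolamine passing through activated charcoal, after 1 h at rt with 80 nM final [3H]-AEA. Enzyme source: lysate of G418-selected SK-N-MC clones expressing rat FAAH, homogenized in Tris/EDTA/glycerol/0.02% Triton buffer, pH 9.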

[2] = test system: mechanical (tactile) allodynia in the left hind paw; experiment: Assay Method 3: Rat Mild Thermal Injury Model (MTI), mechanical allodynia; type: in vivo, Sprague-Dawley rats; conditions: 0.5 h after administration
Text: Assay Method 3—Rat Mild Thermal Injury Model (MTI)
Pathogen-free, male albino Sprague-Dawley rats were purchased from Harlan Industries (San Diego, Calif.) and maintained on a 12-h light/dark cycle (lights on at 9:00 AM and off at 9:00 PM) in a climate-controlled room. Food and water were available ad libitum up to the time of the testing.
Under isoflurane/oxygen anesthesia, a first-degree burn injury (erythema without blistering) was produced as follows: the plantar surface of the rat's left hind paw was placed on water-dampened 56° C. hotplate for 20 seconds and steady contact was maintained by applying an 84 g weight to the dorsum (after Nozaki-Taguchi & Yaksh, Neurosci. Lett. 1998, 254, 25-28).
Mild thermal injury results in mechanical allodynia in the left hind paw. Mechanical (tactile) allodynia was assessed by determining the median threshold at which the affected paw was withdrawn from graded stimuli (von Frey filaments ranging from 0.41 to 15.8 g) applied perpendicularly with sufficient force to bend slightly and held for 2-3 seconds against the proximal half of the third and fourth toe surfaces through wire-mesh observation cages. Paw flinching during or immediately following the removal of the stimulus was considered a positive response. A paw withdrawal threshold (PWT) was determined by sequentially increasing and decreasing the stimulus strength and analyzing withdrawal data using an adaptation of the Dixon up-down method, as described (Chaplan et al., J. Neurosci. 1994, 53, 55-63). Rats were included in the study only if their baseline PWT was 3.1623 g or lower (4.5 logarithmically).
Rats were tested for pre-injury thresholds prior to mild thermal injury and again for baseline thresholds after development of mechanical allodynia. Immediately after baseline measurement, test compound or vehicle was administered orally and the measurement was repeated at 0.5 h after administration. The tactile thresholds (log value) were converted to percent of a maximum possible effect ( %MPE): % MPE=[Threshold(t)−Threshold(baseline)]*100/[Threshold(pre)−Threshold(baseline)], where t=post-treatment time. Data were expressed as mean±standard error of the mean (S.E.M.). Statistical analysis was performed using two-way ANOVA with repeated measures with a significance level of p<0.05.
Results for compounds tested in this assay are presented in Table 2, as an average of results obtained. Compounds were tested in free base, hydrochloride salt, and/or trifluoroacetic acid salt forms.

FAAH = target: T2, FAAH (Homo sapiens, UniProt O00519); conditions: cited from earlier work
T2 sequence (O00519 1-579): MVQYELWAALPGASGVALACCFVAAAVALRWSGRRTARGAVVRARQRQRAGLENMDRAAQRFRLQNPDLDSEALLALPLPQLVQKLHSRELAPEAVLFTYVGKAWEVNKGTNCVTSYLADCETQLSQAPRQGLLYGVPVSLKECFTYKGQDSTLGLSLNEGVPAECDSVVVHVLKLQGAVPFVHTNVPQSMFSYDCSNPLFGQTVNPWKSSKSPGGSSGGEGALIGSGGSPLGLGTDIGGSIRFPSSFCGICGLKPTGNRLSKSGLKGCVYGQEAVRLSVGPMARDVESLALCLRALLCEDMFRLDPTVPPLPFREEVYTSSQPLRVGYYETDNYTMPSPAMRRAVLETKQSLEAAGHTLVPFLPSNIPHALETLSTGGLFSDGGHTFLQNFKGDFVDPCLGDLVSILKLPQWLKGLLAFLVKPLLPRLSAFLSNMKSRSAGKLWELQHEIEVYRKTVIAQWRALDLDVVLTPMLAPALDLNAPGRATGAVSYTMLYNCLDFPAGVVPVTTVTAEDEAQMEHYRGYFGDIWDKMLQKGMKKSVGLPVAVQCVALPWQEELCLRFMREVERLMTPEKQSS

thermal nociception [3] = conditions: rats; cited from earlier work; remark: listed apart in the source
neuropathic pain = conditions: rats; cited from earlier work
[4] = test system: acute thermal nociception; conditions: rats; cited from earlier work

Compound: CCCCCCCCCCCCCCCCS(=O)(=O)F [AM374]
- spasticity in CREAE mice (spasticity): significantly reduce spasticity

Compound: NC(=O)c1cccc(-c2cccc(OC(=O)NC3CCCCC3)c2)c1 [URB-597]
- efficacy in zero plus maze model of anxiety (anxiety): efficacy
- analgesic efficacy/activity in hot plate test (thermal nociception [1]): analgesic efficacy
- analgesic efficacy in formalin test (pain): analgesic efficacy

- IC50 (rat FAAH): 9 nM
Compound: O=C(Nc1cnccn1)N1CCN(Cc2cccc(Oc3ccc(Cl)cc3)c2)CC1 [Example 58, 4-[3-(4-Chloro-phenoxy)-benzyl]-piperazine-1-carboxylic acid pyrazin-2-ylamide trifluoroacetic acid salt]
- % MPE ([2]; 20 mg/Kg p.o., mean +/- S.E.M.): 52 +/− 7%

Compound: O=C(CCCCCCc1ccccc1)c1ncc(-c2ccccn2)o1 [OL-135]
- analgesic efficacy/activity in hot plate test (thermal nociception [1]): analgesic activity
- inhibition of FAAH (FAAH): potent inhibitor
- analgesic activity in tail emersion test (thermal nociception [3]): analgesic activity

- IC50 (rat FAAH): 10 nM
Compound: O=C(Nc1noc2ccccc12)N1CCN(Cc2cccc(Oc3ccc(Cl)cc3)c2)CC1 [Example 36, 4-[3-(4-Chloro-phenoxy)-benzyl]-piperazine-1-carboxylic acid benzo[d]isoxazol-3-ylamide trifluoroacetic acid salt]
- % MPE ([2]; 20 mg/Kg p.o., mean +/- S.E.M.): 38 +/− 13%

- IC50 (rat FAAH): 199 nM
Compound: O=C(Nc1cccnn1)N1CCN(Cc2cccc(Oc3ccc(Cl)cc3)c2)CC1 [Example 246, 4-[3-(4-Chloro-phenoxy)-benzyl]-piperazine-1-carboxylic acid pyridazin-3-ylamide]
- % MPE ([2]; 20 mg/Kg p.o., mean +/- S.E.M.): 32 +/− 3%

Compound: O=C(Nc1ccon1)N1CCN(Cc2cccc(Oc3ccc(Cl)cc3)c2)CC1 [Example 46, 4-[3-(4-Chloro-phenoxy)-benzyl]-piperazine-1-carboxylic acid isoxazol-3-ylamide trifluoroacetic acid salt]
- % MPE ([2]; 6 mg/Kg p.o.): 0%

Compound: Cc1nc(-c2ccccc2)c(-c2ccccc2)n1CCCCCCNC(=O)Oc1ccccc1F [BMS-1]
- analgesic effect in Chung spinal nerve ligation model (neuropathic pain): analgesic effect
- analgesic effect in Hargraves test [4]: analgesic effect
